Experimental data: patent US11578265B2, “AIEgens for cancer cell imaging” (THE HONG KONG UNIVERSITY OF SCIENCE AND TECHNOLOGY, priority 2016, dated 2023)
Each block holds one compound with its values, some of them ahead of it.

Key:
[1] = UV-vis and photoluminescence properties of 2TPE-4E; format: physicochemical
Protocol: The photophysical properties of 2TPE-4E were investigated by UV-vis (FIG. 7A) and photoluminescence (PL) spectra. […] The high ε means 2TPE-4E could be excited by a weak laser power, which is beneficial for bio-application due to the weak photo-damage and photobleaching.
Although the film of 2TPE-4E looked bright, its quantum yield (QY) was measured to be around 6%, which can probably be ascribed to the high molar extinction coefficient. […] With the water fraction (fw) increasing, 2TPE-4E began to aggregate and gave a highest intensity at a fw of 90% due to the restriction of intramolecular rotation.

[2] = Photophysical properties of CSPP; format: physicochemical
Protocol: Inset: photographs of CSPP in water/iPrOH mixtures with 0% and 99% iPrOH fractions taken under 365 nm UV irradiation; (c) PL spectrum of CSPP in water/glycerol mixtures with different glycerol fractions (fG); and (d) plot of I/I0 at 620 nm versus fG, where I0 was the PL intensity in pure water. Inset: plot of log I against log η, where η was the solution viscosity. Concentration: 10 μM; λex: 400 nm.
The photophysical properties of CSPP were studied. […] However, the emission was enhanced at 640 nm in increments of isopropanol fraction (FIGS. 20a and b), which is a signature of AIE. The free intramolecular motion of a molecularly dissolved state in aqueous solution was in favor of non-radiative decay.
Addition of isopropanol induced the formation of aggregates and restricted the intramolecular motion (RIM), activating the radiative channel. Similarly, intramolecular motion can also be restricted in a highly viscous condition.

HCC827 cells [3] = assay: CCK-8 cell viability with CSPP; format: cell-based, human; settings: HCC827, CSPP up to 50 μM, 24 hours
Protocol: (§1) HCC827 and NCI-H23 cells were seeded for 24 hours and incubated in CSPP of different concentration for 24 hours. Data given are the mean±SD (n=4). Before CSPP was further functionalized for antibody labeling, its biocompatibility was verified by CCK-8 assay (FIG. 22).

NCI-H23 cells = assay: CCK-8 cell viability with CSPP; format: cell-based; settings: NCI-H23, CSPP up to 50 μM, 24 hours
Protocol: as §1

HCC827 cells [4] = assay: Cell imaging of CSPP and co-staining with MitoTracker Green; format: cell-based, human; settings: 5 μM
Protocol: The cell imaging of CSPP molecule was also checked (FIG. 23). […] After 8 hours of incubation, more dyes entered and accumulated in the mitochondria of the cells due to targeting of the pyridium group.

Water solubility of CSPP = format: physicochemical
Text: The design and synthesis of the present subject matter was inspired by the simple design and synthesis of ASCP, which was further modified and the hydrophilicity was improved. To prevent denature of antibodies during conjugation, aqueous solution was used for the reaction. A water-soluble AIEgen having a long wavelength in absorption and emission was required. Piperazine (PZ) was introduced to the structure and served as the electron donating group and hydrophilic group; pyridium (Py) salt was kept as the strong electron withdrawing group and hydrophilic group; and α-Cyanostilbene was the core skeleton for attributing AIE characteristics. As such, a new AIEgen, CSPP, was synthesized by Knoevenagel condensation and Suzuki coupling and the targeted compound was successfully obtained. CSPP carries two positive charges, thus enjoying high water-solubility, and its donor-acceptor structure contributes to a long-wavelength absorption, as well as emission. The synthetic route to CSPP and CSPP—NHS is shown below, with the scheme of synthesis following.

- maximum absorption [1]: 473 nm
- water fraction (fw) giving highest emission intensity ([1]; THF/water mixtures): 90%
- emission in dilute THF solution ([1]; dilute THF): very weak emission
- molar extinction coefficient (ε) ([1]; dilute THF solution and thin film): about 7×10^4 M^−1 cm^−1
- quantum yield (QY) ([1]; film): around 6%
- solid emission wavelength ([1]; thin film): 630 nm
Structure (SMILES): CCN(CC)c1ccc(C(=C(c2ccccc2)c2ccc(C#CC#CC#CC#Cc3ccc(C(=C(c4ccc(N(CC)CC)cc4)c4ccc(N(CC)CC)cc4)c4ccccc4)cc3)cc2)c2ccc(N(CC)CC)cc2)cc1 [2TPE-4E]

- λmax, abs ([2]; Aggregates in 99% isopropanol): 400 nm
- λmax, em ([2]; Aggregates in 99% isopropanol): 624 nm
- φF ([2]; Aggregates in 99% isopropanol): 5.6%
- λmax, abs ([2]; In 95% glycerol): 405 nm
- λmax, em ([2]; In 95% glycerol): 610 nm
- φF ([2]; In 95% glycerol): 13.7%
- λmax, abs ([2]; In water): 395 nm
- λmax, em ([2]; In water): 640 nm
- φF ([2]; In water): 0.9%
- emission in pure water ([2]; pure water): very weak emission
- water solubility (Water solubility of CSPP): water-soluble
Structure (SMILES): C[n+]1ccc(-c2ccc(/C(C#N)=C/c3ccc(N4CC[N+](C)(C)CC4)cc3)cc2)cc1.[I-].[I-] [CSPP, (Z)-4-(4-(2-cyano-2-(4-(1-methylpyridin-1-ium-4-yl)phenyl)vinyl)phenyl)-1,1-dimethylpiperazin-1-ium iodide]
- cell viability (HCC827 cells [3]): above 90%
- cell viability (NCI-H23 cells): > 81%
- emission from stained cells (HCC827 cells [4]; 30 minutes): no emission
- emission from stained cells (HCC827 cells [4]; 8 hours): mitochondria lit up
- Pearson correlation coefficient with MitoTracker Green (HCC827 cells [4]; 8 hours, co-staining): 0.80
